Test results from patent publication US11230541B2, “Heterocyclic compound” (Takeda Pharmaceutical Company Limited, priority 2017, dated 2022).

target: T1, NMDA receptor composed of four subunits including 2 sets of heterodimers of NR1 and NR2B (Homo sapiens, UniProt Q13224); test: NR2B Ca2+ influx assay (FLIPR, Fluo-4) in HEK293 cells expressing human GRIN1 and GRIN2B; format: cell-based; details: HEK293, 10 μM final compound concentration, glutamic acid/glycine-induced Ca2+ influx, read-out: inhibitory rate (10 μM compound concentration)
T1 construct: host or cells: HEK293 (tetracycline-induced expression)
T1 sequence (Q13224 27-1484, other chains not shown): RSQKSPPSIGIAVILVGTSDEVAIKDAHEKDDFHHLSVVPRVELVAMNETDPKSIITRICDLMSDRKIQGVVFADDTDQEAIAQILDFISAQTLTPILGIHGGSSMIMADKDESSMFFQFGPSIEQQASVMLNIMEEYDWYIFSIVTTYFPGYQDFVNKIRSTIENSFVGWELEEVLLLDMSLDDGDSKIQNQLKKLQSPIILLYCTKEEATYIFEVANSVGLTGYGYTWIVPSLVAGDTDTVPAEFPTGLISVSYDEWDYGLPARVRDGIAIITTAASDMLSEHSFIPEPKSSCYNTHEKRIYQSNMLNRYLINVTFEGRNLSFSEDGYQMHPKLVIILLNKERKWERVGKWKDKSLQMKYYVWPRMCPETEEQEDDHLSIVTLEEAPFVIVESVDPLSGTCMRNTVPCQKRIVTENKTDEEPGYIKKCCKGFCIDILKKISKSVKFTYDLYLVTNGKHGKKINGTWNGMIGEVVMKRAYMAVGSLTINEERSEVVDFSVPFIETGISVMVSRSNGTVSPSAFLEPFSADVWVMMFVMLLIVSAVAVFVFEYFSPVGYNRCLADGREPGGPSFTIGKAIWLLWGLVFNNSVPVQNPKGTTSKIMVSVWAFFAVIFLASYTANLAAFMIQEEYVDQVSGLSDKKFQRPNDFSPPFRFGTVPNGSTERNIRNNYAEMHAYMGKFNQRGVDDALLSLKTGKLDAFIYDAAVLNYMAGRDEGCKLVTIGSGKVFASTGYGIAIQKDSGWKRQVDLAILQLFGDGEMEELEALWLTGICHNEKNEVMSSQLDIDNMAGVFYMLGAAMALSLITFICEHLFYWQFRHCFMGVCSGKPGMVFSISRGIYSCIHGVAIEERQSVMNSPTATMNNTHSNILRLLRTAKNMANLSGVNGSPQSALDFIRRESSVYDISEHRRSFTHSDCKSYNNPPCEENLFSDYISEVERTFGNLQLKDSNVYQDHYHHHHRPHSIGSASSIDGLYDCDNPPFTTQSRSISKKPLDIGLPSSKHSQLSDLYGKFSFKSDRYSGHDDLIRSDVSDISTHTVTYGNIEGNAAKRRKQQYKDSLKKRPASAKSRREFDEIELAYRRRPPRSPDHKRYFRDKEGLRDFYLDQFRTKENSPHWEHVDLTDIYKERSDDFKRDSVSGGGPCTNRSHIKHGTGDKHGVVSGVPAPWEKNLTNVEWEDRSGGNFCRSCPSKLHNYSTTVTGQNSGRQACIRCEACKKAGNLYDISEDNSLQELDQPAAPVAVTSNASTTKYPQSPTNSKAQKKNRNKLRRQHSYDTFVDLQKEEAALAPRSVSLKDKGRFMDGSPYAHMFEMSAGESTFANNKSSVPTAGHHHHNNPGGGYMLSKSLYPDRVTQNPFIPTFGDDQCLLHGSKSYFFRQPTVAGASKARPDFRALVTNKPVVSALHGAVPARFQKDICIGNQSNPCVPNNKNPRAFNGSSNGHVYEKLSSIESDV
In short: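 Inhibition rate was calculated from 5-min cumulative Fluo-4 signal (FLIPR, 3-s reads), using agonist-free buffer wells as 100% inhibition. Compound, 10 μM final, was applied 15 min before adding buffer with 30 μM glutamic acid and glycine to HEK293 cells with tetracycline-induced human NR1/NR2B, in HEPES pH 7.2 with 1.8 mM CaCl2.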

Row | inhibition at 10 µM [%] | SMILES
1 | 92 | COc1ccc2ncn(C)c2c1CNC(=O)c1csc(C(F)F)c1 [Example 110, 5-(difluoromethyl)-N-((6-methoxy-1-methyl-1H-benzimidazol-7-yl)methyl)thiophene-3-carboxamide]
2 | 92 | COc1ccc2ncn(C)c2c1CNC(=O)c1ccc(C(F)F)c(Cl)c1 [Example 112, 3-chloro-4-(difluoromethyl)-N-((6-methoxy-1-methyl-1H-benzimidazol-7-yl)methyl)benzamide]
3 | 90 | COc1ccc2ncn(C)c2c1CNC(=O)c1cnc(C(F)(F)F)c(Cl)c1 [Example 113, 5-chloro-N-((6-methoxy-1-methyl-1H-benzimidazol-7-yl)methyl)-6-(trifluoromethyl)-nicotinamide]
4 | 87 | COc1ccc2ncn(C)c2c1CNC(=O)c1ccc(C)cc1 [Example 114, N-((6-methoxy-1-methyl-1H-benzimidazol-7-yl)methyl)-4-methylbenzamide]
5 | 90 | COc1ccc2ncn(C)c2c1CNC(=O)c1ccc(Cl)cc1 [Example 116, 4-chloro-N-((6-methoxy-1-methyl-1H-benzimidazol-7-yl)methyl)benzamide]
6 | 90 | COc1ccc2ncn(C)c2c1CNC(=O)c1ccc(C(F)(F)F)cc1 [Example 117, N-((6-methoxy-1-methyl-1H-benzimidazol-7-yl)methyl)-4-(trifluoromethyl)benzamide]
7 | 88 | COc1ccc2ncn(C)c2c1CNC(=O)c1ccc(C(F)F)cc1 [Example 123, 4-(difluoromethyl)-N-((6-methoxy-1-methyl-1H-benzimidazol-7-yl)methyl)benzamide]
8 | 90 | COc1ccc2ncn(C)c2c1CNC(=O)c1ccc(C(F)F)c(F)c1 [Example 124, 4-(difluoromethyl)-3-fluoro-N-((6-methoxy-1-methyl-1H-benzimidazol-7-yl)methyl)benzamide]
9 | 91 | CCOc1ccc2ncn(C)c2c1CNC(=O)c1ccc(C(F)(F)F)cc1 [Example 128, N-((6-ethoxy-1-methyl-1H-benzimidazol-7-yl)methyl)-4-(trifluoromethyl)-benzamide]
10 | 88 | COc1ccc(C(=O)NCc2c(C)ccc3ncn(C)c23)cc1F [Example 129, N-((1,6-dimethyl-1H-benzimidazol-7-yl)methyl)-3-fluoro-4-methoxybenzamide]
11 | 91 | CCc1ccc2ncn(C)c2c1CNC(=O)c1ccc(OC)c(F)c1 [Example 130, N-((6-ethyl-1-methyl-1H-benzimidazol-7-yl)methyl)-3-fluoro-4-methoxybenzamide]
12 | 91 | CCc1ccc2ncn(C)c2c1CNC(=O)c1ccc(C(F)F)cc1 [Example 133, 4-(difluoromethyl)-N-((6-ethyl-1-methyl-1H-benzimidazol-7-yl)methyl)benzamide]
13 | 90 | Cc1ccc2ncn(C)c2c1CNC(=O)c1ccc(OC(F)F)cc1 [Example 135, 4-(difluoromethoxy)-N-((1,6-dimethyl-1H-benzimidazol-7-yl)methyl)benzamide]
14 | 88 | Cc1ccc2ncn(C)c2c1CNC(=O)c1ccc(OC(F)(F)F)nc1 [Example 138, N-((1,6-dimethyl-1H-benzimidazol-7-yl)methyl)-6-(trifluoromethoxy)-nicotinamide]
15 | 91 | COc1ccc2ncn(C)c2c1CNC(=O)c1csc(C(F)(F)F)c1 [Example 139, N-((6-methoxy-1-methyl-1H-benzimidazol-7-yl)methyl)-5-(trifluoromethyl)thiophene-3-carboxamide]
16 | 90 | CCOc1ccc2ncn(C)c2c1CNC(=O)c1ccc(C(F)F)cc1 [Example 140, 4-(difluoromethyl)-N-((6-ethoxy-1-methyl-1H-benzimidazol-7-yl)methyl)benzamide]
17 | 92 | CCc1ccc2ncn(C)c2c1CNC(=O)c1ccc(OC)cc1 [Example 145, N-((6-ethyl-1-methyl-1H-benzimidazol-7-yl)methyl)-4-methoxybenzamide]

The remaining lines, values behind:

Row | SMILES | inhibition at 10 µM [%]
18 | O=C(NCc1c(C2CC2)ccc2[nH]ncc12)c1ccc(OC(F)F)c(Cl)c1 [Example 107, 3-chloro-N-((5-cyclopropyl-1H-indazol-yl)methyl)-4-(difluoromethoxy)-benzamide] | 93
19 | O=C(NCc1c(C2CC2)ccc2[nH]ncc12)c1cc(F)c(C(F)F)c(F)c1 [Example 108, N-((5-cyclopropyl-1H-indazol-4-yl)methyl)-(difluoromethyl)-3,5-dlfluorobenzamide] | 94
20 | Cc1ccc2ncn(C)c2c1CNC(=O)c1ccc(OC(F)F)c(F)c1 [Example 109, 4-(difluoromethoxy)-N-((1,6-dimethyl-1H-benzimidazol-7-yl)methyl)-3-fluorobenzamide] | 92
21 | COc1ccc2ncn(C)c2c1CNC(=O)c1cc(F)c(OC)c(Cl)c1 [Example 111, 3-chloro-5-fluoro-4-methoxy-N-((6-methoxy-1-methyl-1H-benzimidazol-7-yl)methyl)benzamide] | 93
22 | COc1ccc2ncn(C)c2c1CNC(=O)c1csc(C2CC2)c1 [Example 115, 5-cyclopropyl-N-((6-methoxy-1-methyl-1H-benzimidazol-7-yl)methyl)thiophene-3-carboxamide] | 93
23 | O=C(NCc1c(C2CC2)ccc2[nH]ncc12)c1ccc(C(F)F)c(F)c1 [Example 118, N-((5-cyclopropyl-1H-indazol-4-yl)methyl)-4-(difluoromethyl)-3-fluorobenzamide] | 94
24 | CCOc1ncc(C(=O)NCc2c(C3CC3)ccc3[nH]ncc23)cc1F [Example 119, N-((5-cyclopropyl-1H-indazol-4-yl)methyl)-6-ethoxy-5-fluoronicotinamide] | 94
25 | O=C(NCc1c(C2CC2)ccc2[nH]ncc12)c1ccc(OC(F)F)c(F)c1 [Example 120, N-((5-cyclopropyl-1H-indazol-4-yl)methyl)-4-(difluoromethoxy)-3-fluorobenzamide] | 92
26 | O=C(NCc1c(C2CC2)ccc2[nH]ncc12)c1cnc(OC(F)F)c(Cl)c1 [Example 121, 5-chloro-N-((5-cyclopropyl-1H-indazol-4-yl)methyl)-6-(difluoromethoxy)-nicotinamide] | 91
27 | CCc1ccc(C(=O)NCc2c(OC)ccc3ncn(C)c23)s1 [Example 122, 5-ethyl-N-((6-methoxy-1-methyl-1H-benzimidazol-7-yl)methyl)thiophene-2-carboxamide] | 90
28 | CCOc1ccc2ncn(C)c2c1CNC(=O)c1csc(C(F)F)c1 [Example 125, 5-(difluoromethyl)-N-((6-ethoxy-1-methyl-1H-benzimidazol-7-yl)methyl)thiophene-3-carboxamide] | 92
29 | CCOc1ccc2ncn(C)c2c1CNC(=O)c1ccc(C(F)F)s1 [Example 126, 5-(difluoromethyl)-N-((6-ethoxy-1-methyl-1H-benzimidazol-7-yl)methyl)thiophene-2-carboxamide] | 88
30 | CCOc1ccc2ncn(C)c2c1CNC(=O)c1cc(F)c(OC)c(F)c1 [Example 127, N-((6-ethoxy-1-methyl-1H-benzimidazol-7-yl)methyl)-3,5-difluoro-4-methoxybenzamide] | 92
31 | CCc1ccc2ncn(C)c2c1CNC(=O)c1cc(F)c(OC(F)F)c(F)c1 [Example 131, 4-(difluoromethoxy)-N-((6-ethyl-1-methyl-1H-benzimidazol-7-yl)methyl)-3,5-difluorobenzamide] | 93
32 | CCc1ccc2ncn(C)c2c1CNC(=O)c1csc(C(F)F)c1 [Example 132, 5-(difluoromethyl)-N-((6-ethyl-1-methyl-1H-benzimidazol-7-yl)methyl)thiophene-3-carboxamide] | 90
33 | Cc1ccc2ncn(C)c2c1CNC(=O)c1cnc(OC(F)F)c(F)c1 [Example 134, 6-(Difluoromethoxy)-N-((1,6-dimethyl-1H-benzimidazol-7-yl)methyl)-5-fluoronicotinamide] | 90
34 | Cc1ccc2ncn(C)c2c1CNC(=O)c1ccc(C(F)F)c(F)c1 [Example 136, 4-(difluoromethyl)-N-((1,6-dimethyl-1H-benzimidazol-7-yl)methyl)-3-fluorobenzamide] | 83
35 | Cc1ccc2ncn(C)c2c1CNC(=O)c1ccc(C(F)F)s1 [Example 137, 5-(difluoromethyl) -N-((1,6-dimethyl-1H-benzimidazol-7-yl)methyl)thiophene-2-carboxamide] | 72
36 | CCOc1ccc2ncn(C)c2c1CNC(=O)c1ccc(C(F)F)c(F)c1 [Example 141, 4-(difluoromethyl)-N-((6-ethoxy-1-methyl-1H-benzimidazol-7-yl)methyl)-3-fluorobenzamide] | 90
37 | Cc1ccc2ncn(C)c2c1CNC(=O)c1csc(C(F)F)c1 [Example 142, 5-(difluoromethyl)-N-((1,6-dimethyl-1H-benzimidazol-7-yl)methyl)thiophene-3-carboxamide] | 85
38 | CCc1ccc2ncn(C)c2c1CNC(=O)c1cnc(OC(F)F)c(F)c1 [Example 143, 6-(difluoromethoxy)-N-((6-ethyl-1-methyl-1H-benzimidazol-7-yl)methyl)-5-fluoronicotinamide] | 91
39 | Cc1ccc2ncn(C)c2c1CNC(=O)c1csc(C2CC2)c1 [Example 144, 5-cyclopropyl-N-((1,6-dimethyl-1H-benzimidazol-7-yl)methyl)thiophene-3-carboxamide] | 90
40 | CCc1ccc2ncn(C)c2c1CNC(=O)c1ccc(C(F)F)c(F)c1 [Example 146, 4-(difluoromethyl)-N-((6-ethyl-1-methyl-1H-benzimidazol-7-yl)methyl)-3-fluorobenzamide] | 90
